Measurements as given in PubChem BioAssay AID1963836 (Molecular Pharmacology Branch, DTP, NCI, 2024).

Test system: 857933-349-R-J2-PDC complex spheroid viability
Assay: Anticancer human tumor 857933-349-R-J2-PDC patient-derived colon adenocarcinoma cell line growth inhibition [POLQ]
Settings: for IC50: curve of first compound; for viability, T/C: stronger effect = lower value
How it was run: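 Three-cell-type spheroids modelling solid tumor plus stroma served as the readout system; POL inhibitors were tested individually and in combination, concentration ranges set by clinical Cmax where known.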

[1] = second compound 0.0316 µM, first compound 0.0316 µM
[2] = second compound 0.0316 µM, first compound 0.1 µM
[3] = second compound 0.0316 µM, first compound 0.316 µM
[4] = second compound 0.0316 µM, first compound 1 µM
[5] = second compound 0.0316 µM, first compound 3.16 µM
[6] = second compound 0.0316 µM, first compound 10 µM
[7] = second compound 0.1 µM, first compound 0.0316 µM
[8] = second compound 0.1 µM, first compound 0.1 µM
[9] = second compound 0.1 µM, first compound 0.316 µM
[10] = second compound 0.1 µM, first compound 1 µM
[11] = second compound 0.1 µM, first compound 3.16 µM
[12] = second compound 0.1 µM, first compound 10 µM
[13] = second compound 0.316 µM, first compound 0.0316 µM
[14] = second compound 0.316 µM, first compound 0.1 µM
[15] = second compound 0.316 µM, first compound 0.316 µM
[16] = second compound 0.316 µM, first compound 1 µM
[17] = second compound 0.316 µM, first compound 3.16 µM
[18] = second compound 0.316 µM, first compound 10 µM
[19] = second compound 1 µM, first compound 0.0316 µM
[20] = second compound 1 µM, first compound 0.1 µM
[21] = second compound 1 µM, first compound 0.316 µM
[22] = second compound 1 µM, first compound 1 µM
[23] = second compound 1 µM, first compound 3.16 µM
[24] = second compound 1 µM, first compound 10 µM
[25] = second compound 3.16 µM, first compound 0.0316 µM
[26] = second compound 3.16 µM, first compound 0.1 µM
[27] = second compound 3.16 µM, first compound 0.316 µM
[28] = second compound 3.16 µM, first compound 1 µM
[29] = second compound 3.16 µM, first compound 3.16 µM
[30] = second compound 3.16 µM, first compound 10 µM
[31] = second compound 10 µM, first compound 0.0316 µM
[32] = second compound 10 µM, first compound 0.1 µM
[33] = second compound 10 µM, first compound 0.316 µM
[34] = second compound 10 µM, first compound 1 µM
[35] = second compound 10 µM, first compound 3.16 µM
[36] = second compound 10 µM, first compound 10 µM
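Also: spheroids exposed to compounds for seven days before readout.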

SMILES: CC1COCCN1c1cc(C2(O)CC3CCC(C2)O3)c2cnn(-c3ccn[nH]3)c2n1 (centres undefined) + COC1C(OC(N)=O)C(O)C(Oc2ccc3c(O)c(NC(=O)c4ccc(O)c(CC=C(C)C)c4)c(=O)oc3c2C)OC1(C)C
- IC50 (second compound 0.0316 µM): 249 nM
- IC50 (second compound 0.1 µM): 279 nM
- IC50 (second compound 0.316 µM): 334 nM
- IC50 (second compound 1 µM): 285 nM
- IC50 (second compound 3.16 µM): 171 nM
- IC50 (second compound 10 µM): 339 nM
- viability, T/C [1]: 76.3%
- viability, T/C [2]: 61.5%
- viability, T/C [3]: 48.2%
- viability, T/C [4]: 39%
- viability, T/C [5]: 40.7%
- viability, T/C [6]: 49.7%
- viability, T/C [7]: 111%
- viability, T/C [8]: 57.7%
- viability, T/C [9]: 59.4%
- viability, T/C [10]: 37.7%
- viability, T/C [11]: 40.2%
- viability, T/C [12]: 47%
- viability, T/C [13]: 63.3%
- viability, T/C [14]: 68.1%
- viability, T/C [15]: 50.3%
- viability, T/C [16]: 41%
- viability, T/C [17]: 43.1%
- viability, T/C [18]: 46.7%
- viability, T/C [19]: 94.3%
- viability, T/C [20]: 58.1%
- viability, T/C [21]: 50.4%
- viability, T/C [22]: 41.2%
- viability, T/C [23]: 49.9%
- viability, T/C [24]: 51.4%
- viability, T/C [25]: 75.2%
- viability, T/C [26]: 54.5%
- viability, T/C [27]: 45.5%
- viability, T/C [28]: 38.1%
- viability, T/C [29]: 43.3%
- viability, T/C [30]: 50%
- viability, T/C [31]: 71.5%
- viability, T/C [32]: 63.6%
- viability, T/C [33]: 52.8%
- viability, T/C [34]: 36.7%
- viability, T/C [35]: 45.6%
- viability, T/C [36]: 47.9%

SMILES: C#Cc1c(F)ccc2cc(O)cc(-c3ncc4c(N5CC6CCC(C5)N6)nc(OCC56CCCN5CC(F)C6)nc4c3F)c12 (centres undefined) + Cc1cccc(N(C)C(=O)C2C(O)CCN2c2nc(C)cc(C(F)(F)F)c2C#N)c1
- IC50 (second compound 0.0316 µM): > 10000 nM
- IC50 (second compound 0.1 µM): > 10000 nM
- IC50 (second compound 0.316 µM): > 10000 nM
- IC50 (second compound 1 µM): > 10000 nM
- IC50 (second compound 3.16 µM): > 10000 nM
- IC50 (second compound 10 µM): > 10000 nM
- viability, T/C [1]: 91.7%
- viability, T/C [2]: 105%
- viability, T/C [3]: 101%
- viability, T/C [4]: 89.2%
- viability, T/C [5]: 89.4%
- viability, T/C [6]: 82.8%
- viability, T/C [7]: 107%
- viability, T/C [8]: 97.8%
- viability, T/C [9]: 96.3%
- viability, T/C [10]: 76.8%
- viability, T/C [11]: 89.2%
- viability, T/C [12]: 74.2%
- viability, T/C [13]: 101%
- viability, T/C [14]: 110%
- viability, T/C [15]: 103%
- viability, T/C [16]: 80.3%
- viability, T/C [17]: 96.1%
- viability, T/C [18]: 91.4%
- viability, T/C [19]: 87%
- viability, T/C [20]: 87.1%
- viability, T/C [21]: 85.6%
- viability, T/C [22]: 87.5%
- viability, T/C [23]: 91%
- viability, T/C [24]: 87.6%
- viability, T/C [25]: 97.7%
- viability, T/C [26]: 90.2%
- viability, T/C [27]: 85.9%
- viability, T/C [28]: 90.8%
- viability, T/C [29]: 101%
- viability, T/C [30]: 84.2%
- viability, T/C [31]: 80.8%
- viability, T/C [32]: 86.9%
- viability, T/C [33]: 91%
- viability, T/C [34]: 75.1%
- viability, T/C [35]: 90.9%
- viability, T/C [36]: 81.3%
